Results as given in US8791100B2 (Novartis AG, priority 2010, dated 2014).

Molecular target: human S1P1 receptors (Homo sapiens (Human), UniProt P21453)
Assay: Human S1P1 Receptor Calcium FLIPR Antagonist Assay (HeLa Gα16 S1P1)
Assay type: cell-based
Conditions: relative antagonism vs probing agonist GNF-AC-1 at EC80, HeLa-S1P1/Gα16 cells
From the text: Human S1P1 Receptor Calcium FLIPR Antagonist Assay
The assay measures intracellular changes of Ca^2+ mediated by the synthetic probing agonist 3-{[2-(2-Trifluoromethyl-biphenyl-4-yl)-benzo[b]thiophen-5-ylmethyl]-amino}-propionic acid (GNF-AC-1) in the HeLa-S1P1/Gα16 cell clone 1: HeLa (human cervix carcinoma, ATCC CCL2) cells stably expressing N-terminally myc-tagged human S1P1 receptors (GenBank™ accession No. NM_001400; UNIPROT P21453) and promiscuous Gα16 protein (GenBank™ accession number M63904, Swissprot P30679) are cultured at 37° C., 5% CO2, and 95% relative humidity. The cells are plated in 384 well black plates (10′000 cells per well). After 24 hours the cells are loaded with Fluo-4-AM (1.6 μM in HBSS and 2.5 mM probenicid) for 1 hour at 37° C. After washing, the cells are transferred to the FLIPR. The test compounds are added at different concentrations (≦100 μM) in HBSS in the presence of 0.1% BSA and changes in fluorescence are recorded (indication of agonism). The probing agonist is added 20-30 minutes afterwards to the wells at a concentration giving 80% of the maximal activity (EC80). After each addition, time points are collected as follows: 20 time points (2 seconds) before the addition of the agonist (Fmin) and 60 time points (1 or 2 seconds) after the addition of the probing agonist. This allows the determination of the maximal fluorescence (Fmax). The ratio (Fmax−Fmin)/Fmin is plotted against the log of the concentration of the test compounds and the IC50 (relative antagonism) is calculated using the XLfit-4 software. […] A concentration-response curve of the probing agonist is determined on each plate in parallel.

Chain of human S1P1 receptors (P21453 whole entry): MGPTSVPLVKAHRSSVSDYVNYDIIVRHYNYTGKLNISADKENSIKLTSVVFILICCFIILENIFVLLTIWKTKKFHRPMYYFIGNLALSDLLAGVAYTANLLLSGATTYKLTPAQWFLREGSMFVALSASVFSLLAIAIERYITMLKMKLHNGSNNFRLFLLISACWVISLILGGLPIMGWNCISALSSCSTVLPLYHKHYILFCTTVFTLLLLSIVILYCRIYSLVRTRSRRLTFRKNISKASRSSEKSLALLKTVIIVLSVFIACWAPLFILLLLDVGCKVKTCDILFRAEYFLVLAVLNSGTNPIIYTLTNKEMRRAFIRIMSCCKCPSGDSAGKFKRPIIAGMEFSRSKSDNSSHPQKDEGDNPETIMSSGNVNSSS

SMILES	IC50 [nM]
Cc1cc(C(C)Nc2cccc(CN3CC(C(=O)O)C3)c2)ccc1Cl (stereo not drawn) [Example 1, 1-{3-[1-(4-Chloro-3-methyl-phenyl)-ethylamino]-benzyl}-azetidine-3-carboxylic acid]	14.7
CCC(Nc1cccc(CN2CC(C(=O)O)C2)c1)c1ccc(Cl)c(C)c1 (stereo not drawn) [Example 2, 1-{3-[1-(4-Chloro-3-methyl-phenyl)-propylamino]-benzyl}-azetidine-3-carboxylic acid]	3.5
CC[C@@H](Nc1cccc(CN2CC[C@@H](C(=O)O)C2)c1)c1ccc(Cl)c(C)c1 [Example 11]	4
CCC(c1cccc(N[C@H](CC)c2ccc(Cl)c(C)c2)c1)N1CC(C(=O)O)C1 (stereo partly drawn) [Example 13, 1-(1-{3-[(R)-1-(4-Chloro-3-methyl-phenyl)-propylamino]-phenyl}-propyl)-azetidine-3-carboxylic acid]	4.7
CCC(Nc1cc(C)cc(CN2CC[C@@H](C(=O)O)C2)c1)c1ccc(Cl)c(C)c1 (stereo partly drawn) [Example 15, (R)-1-{3-[1-(4-Chloro-3-methyl-phenyl)-propylamino]-5-methyl-benzyl}-pyrrolidine-3-carboxylic acid]	2.3
CC[C@@H](Nc1cccc(CN2CC(C(=O)O)C2)c1)c1cc(C)c(Cl)c(C)c1 [Example 18, 1-{3-[(R)-1-(4-Chloro-3,5-dimethyl-phenyl)-propylamino]-benzyl}-azetidine-3-carboxylic acid]	1.9
CC[C@@H](Nc1cccc(CN2CC(C(=O)O)C2)c1)c1ccc2c(Cl)cccc2c1 [Example 20, 1-{3-[(R)-1-(5-Chloro-naphthalen-2-yl)-propylamino]-benzyl}-azetidine-3-carboxylic acid]	2
CC[C@@H](Nc1cccc(CN2CC(C(=O)O)C2)c1F)c1ccc(Cl)c(C)c1 [Example 24, 1-{3-[(R)-1-(4-Chloro-3-methyl-phenyl)-propylamino]-2-fluoro-benzyl}-azetidine-3-carboxylic acid]	1.9
CC[C@@H](Nc1cccc(CN2CC[C@@H](C(=O)O)C2)c1F)c1ccc(Cl)c(C)c1 [Example 25, (R)-1-{3-[(R)-1-(4-Chloro-3-methyl-phenyl)-propylamino]-2-fluoro-benzyl}-pyrrolidine-3-carboxylic acid]	3.3
CC[C@@H](Nc1cc(CN2CC(C(=O)O)C2)ccc1F)c1ccc(Cl)c(C)c1 [Example 26, 1-{3-[(R)-1-(4-Chloro-3-methyl-phenyl)-propylamino]-4-fluoro-benzyl}-azetidine-3-carboxylic acid]	2.1
CC[C@@H](Nc1cc(CN2CC[C@@H](C(=O)O)C2)ccc1F)c1ccc(Cl)c(C)c1 [Example 27, (R)-1-{3-[(R)-1-(4-Chloro-3-methyl-phenyl)-propylamino]-4-fluoro-benzyl}-pyrrolidine-3-carboxylic acid]	10.6
CCc1ccc(N[C@@H](c2ccc(Cl)c(C)c2)C(F)(F)F)cc1CN1CC(C(=O)O)C1 [Example 35, 1-{5-[(S)-1-(4-Chloro-3-methyl-phenyl)-2,22-trifluoro-ethylamino]-2-ethyl-benzyl}-azetidine-3-carboxylic acid]	1.8
CCc1ccc(N[C@H](CC)c2ccc(Cl)c(C)c2)cc1CN1CC[C@@H](C(=O)O)C1 [Example 36, (R)-1-{5-[(R)-1-(4-Chloro-3-methyl-phenyl)-propylamino]-2-ethyl-benzyl}-pyrrolidine-3-carboxylic acid]	3.7
CCc1ccc(N[C@H](CC)c2ccc(Cl)c(C)c2)cc1CN1CC(C(=O)O)C1 [Example 37, 1-{5-[(R)-1-(4-Chloro-3-methyl-phenyl)-propylamino]-2-ethyl-benzyl}-azetidine-3-carboxylic acid]	2.5
Cc1ccc(N[C@H](C)c2cc(C)c(Cl)c(C)c2)cc1CN1CC[C@@H](C(=O)O)C1 [Example 44, (R)-1-{5-[(R)-1-(4-Chloro-3,5-dimethyl-phenyl)-ethylamino]-2-methyl-benzyl}-pyrrolidine-3-carboxylic acid]	6.7
CC[C@@H](Nc1ccc(C)c(CNC[C@@H](C)C(=O)O)c1)c1cc(C)c(Cl)c(C)c1 [Example 49, (R)-3-(5-[(R)-1-(4-Chloro-3,5-dimethyl-phenyl)-propylamino)-2-methyl-benzylamino]-2-methyl-propionic acid]	2.4

These reach a lower IC50. Values come first.

IC50 [nM]	SMILES
0.7	CC[C@@H](Nc1cc(CN2CCC(C)(C(=O)O)C2)c(Cl)cn1)c1ccc(Cl)c(C)c1 (single isomer, unassigned) [Example 87]
0.9	CC[C@@H](Nc1cccc(CN2CC(C(=O)O)C2)c1)c1ccc(Cl)c(C)c1 [Example 3, 1-{3-[(R)-1-(4-Chloro-3-methyl-phenyl)-propylamino]-benzyl}-azetidine-3-carboxylic acid]
0.2	CCC(Nc1ccc(C)c(CN2CC(C(=O)O)C2)c1)c1ccc(Cl)c(C)c1 (stereo not drawn) [Example 4, 1-{5-[1-(4-Chloro-3-methyl-phenyl)-propylamino]-2-methyl-benzyl}-azetidine-3-carboxylic acid]
0.5	CC[C@@H](Nc1cccc(C(C)N2CC(C(=O)O)C2)c1)c1ccc(Cl)c(C)c1 (stereo partly drawn) [Example 6, 1-(1-{3-[(R)-1-(4-Chloro-3-methyl-phenyl)-propylamino]-phenyl}-ethyl)-azetidine-3-carboxylic acid]
1.5	CC[C@@H](Nc1cccc(CN2CC(C)(C(=O)O)C2)c1)c1ccc(Cl)c(C)c1 [Example 8, 1-{3-[(R)-1-(4-Chloro-3-methyl-phenyl)-propylamino]-benzyl}-3-methyl-azetidine-3-carboxylic acid]
0.4	CCC(Nc1cc(C)cc(CN2CC(C(=O)O)C2)c1)c1ccc(Cl)c(C)c1 (stereo not drawn) [Example 9, 1-{3-[1-(4-Chloro-3-methyl-phenyl)-propylamino]-5-methyl-benzyl}-azetidine-3-carboxylic acid]
1.6	CCC(Nc1ccc(C)c(C(C)N2CC(C(=O)O)C2)c1)c1ccc(Cl)c(C)c1 (stereo not drawn) [Example 10, 1-(1-{5-[1-(4-Chloro-3-methyl-phenyl)-propylamino]-2-methyl-phenyl}-ethyl)-azetidine-3-carboxylic acid]
1.5	CCC(Nc1cccc(CN2CC[C@@H](C(=O)O)C2)c1C)c1ccc(Cl)c(C)c1 (stereo partly drawn) [Example 14, (R)-1-{3-[1-(4-Chloro-3-methyl-phenyl)-propylamino]-2-methyl-benzyl}-pyrrolidine-3-carboxylic acid]
1.6	Cc1cc(C(Nc2cccc(CN3CC(C(=O)O)C3)c2)C(C)C)ccc1Cl (stereo not drawn) [Example 17, 1-{3-[1-(4-Chloro-3-methyl-phenyl)-2-methyl-propylamino]-benzyl}-azetidine-3-carboxylic acid]
0.8	CC[C@@H](Nc1ccc(C)c(CN2CC(C(=O)O)C2)c1)c1ccc(Cl)c(C)c1 [Example 22, 1-{5-[(R)-1-(4-Chloro-3-methyl-phenyl)-propylamino]-2-methyl-benzyl}-azetidine-3-carboxylic acid]
0.8	CC[C@@H](Nc1ccc(C)c(CN2CC(C)(C(=O)O)C2)c1)c1ccc(Cl)c(C)c1 [Example 28, 1-{5-[(R)-1-(4-Chloro-3-methyl-phenyl)-propylamino]-2-methyl-benzyl}-3-methyl-azetidine-3-carboxylic acid]
0.8	CC[C@@H](Nc1ccc(Cl)c(CN2CC[C@@H](C(=O)O)C2)c1)c1ccc(Cl)c(C)c1 [Example 38, (R)-1-{2-Chloro-5-[(R)-1-(4-chloro-3-methyl-phenyl)-propylamino]-benzyl}-pyrrolidine-3-carboxylic acid]
0.8	Cc1cc([C@H](Nc2cccc(CN3CC(C(=O)O)C3)c2C)C(F)(F)F)ccc1Cl [Example 39, 1-{3-[(S)-1-(4-Chloro-3-methyl-phenyl)-2,2,2-trifluoro-ethylamino]-2-methyl-benzyl}-azetidine-3-carboxylic acid]
0.4	Cc1cc([C@H](Nc2ccc(C)c(CNCCC(=O)O)c2C)C(F)(F)F)ccc1Cl [Example 40, 3-{3-[(S)-1-(4-Chloro-3-methyl-phenyl)-2,2,2-trifluoro-ethylamino]-2,6-dimethyl-benzylamino}-propionic acid]
1.3	Cc1cc([C@@H](C)Nc2ccc(Cl)c(CN3CC[C@@H](C(=O)O)C3)c2)cc(C)c1Cl [Example 46, (R)-1-{2-Chloro-5-[(R)-1-(4-chloro-3,5-dimethyl-phenyl)-ethylamino]-benzyl}-pyrrolidine-3-carboxylic acid]
1.6	Cc1ccc(N[C@H](C)c2cc(C)c(Cl)c(C)c2)cc1CNCCC(=O)O [Example 47, 3-{5-[(R)-1-(4-Chloro-3,5-dimethyl-phenyl)-ethylamino]-2-methyl-benzylamino}-propionic acid]
0.9	Cc1cc([C@H](Nc2ccc(Cl)c(CNCCC(=O)O)c2)C(F)(F)F)ccc1Cl [Example 52, 3-{2-Chloro-5-[(S)-1-(4-chloro-3-methyl-phenyl)-2,2,2-trifluoro-ethylamino]-benzylamino}-propionic acid]
